Nine molecules from article PMC7235819, “Advanced Resistance Studies Identify Two Discrete Mechanisms in Staphylococcus aureus to Overcome Antibacterial Compounds that Target Biotin Protein Ligase” (Antibiotics, 2020) can be followed below.

Series [1] deals with T1, Staphylococcus aureus NCTC-8325.
T1 construct: NCTC 8325
As to the kind of experiment: microbe, parasite or virus in culture. As to conditions: NCTC8325. Also on record: antimicrobial susceptibility assay, MIC, growth inhibition of S. aureus parent strain. The method, then:
The ability of S. aureus to develop resistance to BASA was investigated using both spontaneous resistance and serial passage approaches. The S. aureus NCTC 8325 strain was selected due to the availability of a sequenced reference genome for comparative sequence analysis. To measure the rate at which spontaneous resistance develops, 10^9 S. aureus cells were plated onto media containing four times the MIC of BASA. No resistant mutants grew after 24 hours which equates to a calculated resistance frequency of <10^−9 at this inhibitor concentration. BASA resistant S. aureus strains were subsequently generated by the serial passage of seven populations of S. aureus NCTC 8325 in sub-inhibitory concentrations of BASA for 18 days at which time individual colonies were isolated. These were then passaged on non-selective media to verify that the inherited resistance was genetically stable. The sensitivity of the strains to BASA was then established using antimicrobial sensitivity assays (Table 2 and Figure S8A). The isotypic parent strain was highly sensitive to BASA, with an MIC of 0.0625 µg/mL. […] To determine if there was a fitness cost associated with these mutations, in vitro growth curves for the seven strains were analyzed and doubling times calculated (Table 2, Figure S8B). […] To test if the resistance mechanisms identified were specific for BASA, all seven strains were subjected to antibacterial susceptibility assays against a panel of diverse antibiotics that included two known BPL inhibitors, namely biotinol-5′-AMP [32] and BPL223 (compound 4c in [30]). The evolved resistance mechanisms appeared specific to the BPL inhibitors as there was no change in susceptibility to β-lactams amoxicillin and methicillin (Table S1).

The target in series [2] is T2, biotin protein ligase (SaBPL) (Staphylococcus aureus, UniProt A0A3A5LBF0).
T2 construct: gene birA; recombinant SaBPL
As to the kind of experiment: native nESI-MS of holo protein (homodimer). In kind it is binding.

Series [3] addresses T3, biotin protein ligase (SaBPL-D200E) (Staphylococcus aureus, UniProt A0A3A5LBF0, D200E).
T3 construct: gene birA; recombinant SaBPL-D200E
As to the kind of experiment: native nESI-MS of holo protein (monomer). The series is classed as binding.

The target of series [4] is Staphylococcus aureus biotin protein ligase (SaBPL), wildtype (S. aureus Mu50). As to the kind of experiment: native MS; native nESI-MS (Waters Synapt G1 HDMS), holo protein (biotinyl-5'-AMP bound); 10 uM wildtype SaBPL; SaBPL-D200E at 1.4 to 90 uM; monomer to dimer.
In series [5] the test system is O=C(O)CCCC[C@@H]1SC[C@@H]2NC(=O)N[C@@H]21. As to the kind of experiment: purified protein. The conditions noted are these: MgATP biotin-binding pocket (biotin-binding loop residues […]).
For series [6] the test system is unchanged. As to the kind of experiment: in vitro protein biotinylation assay, Km. The series is classed as biochemical, Staphylococcus aureus. As to conditions: MgATP biotin-binding pocket (biotin-binding loop residues […]).
The target of series [7] is SaBPL (biotin protein ligase, BirA) wild type (Staphylococcus aureus Mu50, UniProt A0A0H3JRH8 1-323). As to the kind of experiment: EMSA; 100 uM biotin + MgATP, 2.5% DMSO (control for BASA); EMSA adapted from cited protocols; buffer, salt, pH and temperature not given; BASA or biotin at 100 uM with 2.5% DMSO in the Fig S7 assays. The conditions noted are these: protein: recombinant. Background: Mobility shift assays separate free from complexed probe on a gel.

Broadly, the stoichiometry N is a count of units in the complex or per binding partner. The term Km denotes the substrate concentration at which the rate is half of its maximum.

Converted amounts (≈) assume the structure as drawn.

With `CC1(C)S[C@@H]2[C@H](NC(=O)[C@H](N)c3ccc(O)cc3)C(=O)N2[C@H]1C(=O)O` [amoxicillin], the MIC in series [1] came out at 16 µg/mL (≈ 43.8 µM).

Take `Nc1ncnc2c1ncn2[C@@H]1O[C@H](COP(=O)(O)OCCCCC[C@@H]2SC[C@@H]3NC(=O)N[C@@H]32)[C@@H](O)[C@H]1O` [biotinol-5'-AMP, biotinol-5′-AMP]: in series [1], the MIC is 1 µg/mL (≈ 1.79 µM).

As for `Nc1ncnc2c1ncn2[C@@H]1O[C@H](COP(=O)(O)OC(=O)CCCC[C@@H]2SC[C@@H]3NC(=O)N[C@@H]32)[C@@H](O)[C@H]1O` [biotinyl-5′-AMP], the “native nESI-MS of holo protein (homodimer)” value in series [2] is recorded as “SaBPL underwent a well-characterized monomer-to-dimer transition induced by biotinyl-5′-AMP (Figure 3A,B)”. Further, in series [3], the “native nESI-MS of holo protein (monomer)” value was “native nESI–MS provided sufficient mass resolution to confirm the presence of bound biotinyl-5′-AMP”.

Regarding `COc1cccc(OC)c1C(=O)N[C@@H]1C(=O)N2[C@@H]1SC(C)(C)[C@@H]2C(=O)O` [methicillin], in series [1], the MIC was determined as 2 µg/mL (≈ 5.26 µM).

Take “Staphylococcus aureus biotin protein ligase (SaBPL), wildtype (enzyme)”: the stoichiometry N in series [4] stood at 2.

On to “biotin protein ligase (SaBPL) (Staphylococcus aureus)”, for which the Km in series [5] amounted to 1.8 ± 0.3 µM.

For the molecule “biotin protein ligase (SaBPL-D200E) (Staphylococcus aureus; D200E)”, the Km in series [6] stood at 3.8 ± 0.4 µM.

B1: bioO (dsDNA)
DNA 1: CCTTAAATGTAAACTTTTATAATTAATAAGTTTACATTTAAG
DNA 2: CCTTAAATGTAAACTTATTAATTATAAAAGTTTACATTTAAGG
With B1, the binding result in series [7] (bottom strand 5' overhang 1 nt as printed (top 42 nt lacks the final G)) was “binds”.

B2: bioY (dsDNA)
DNA 1: AACTTATTGTAAACTTTTCATTTCTTAAAGTTTACAATGGTGCT
DNA 2: AGCACCATTGTAAACTTTAAGAAATGAAAAGTTTACAATAAGTT
Regarding B2, in series [7] (blunt), the binding result was “binds”.
